In ChEMBL document CHEMBL3217454, “Structureactivity relationship studies using peptide arrays: the example of HIV-1 Revintegrase interaction” (Medchemcomm, 2013) one finds Activity data, which are given here for 19 compounds.

Structures are written as SMILES. Peptide text beside a SMILES is read from it.

The subject of assay [1] is Human immunodeficiency virus 1. In words: Binding affinity to HLT-tagged HIV-1 Rev measured after overnight incubation by chemiluminescence analysis relative to IN 118-128. Set-up: concentration or dose not given beside the values.
The target in assay [2] is Human immunodeficiency virus type 1 integrase (Human immunodeficiency virus 1) (UniProt Q7ZJM1). In words: Binding affinity to HIV-1 integrase measured after overnight incubation by chemiluminescence analysis relative to IN 118-128. Details: concentration or dose not given beside the values.
Human immunodeficiency virus type 1 integrase (Human immunodeficiency virus 1), sequence (Q7ZJM1 as listed by the source): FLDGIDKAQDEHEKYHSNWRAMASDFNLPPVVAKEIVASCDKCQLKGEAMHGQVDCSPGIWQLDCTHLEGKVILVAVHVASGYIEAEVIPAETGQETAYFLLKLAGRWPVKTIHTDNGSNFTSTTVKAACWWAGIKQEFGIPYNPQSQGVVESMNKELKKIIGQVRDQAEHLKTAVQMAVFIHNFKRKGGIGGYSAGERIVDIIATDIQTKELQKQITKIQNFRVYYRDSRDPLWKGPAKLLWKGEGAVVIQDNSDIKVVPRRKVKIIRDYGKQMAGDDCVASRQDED

Turning to `CC(C)[C@H](NC(=O)[C@@H](NC(=O)[C@@H](NC(=O)[C@@H](CO)NC(=O)[C@@H](NC(=O)[C@H](Cc1ccccc1)NC(=O)[C@H](CC(N)=O)NC(=O)[C@H](CO)NC(=O)CN)[C@@H](C)O)[C@@H](C)O)[C@@H](C)O)C(=O)N[C@@H](CCCCN)C(=O)N[C@@H](C)C(=O)O`, the Activity was found to be 124% in assay [1] and 92% in assay [2].

`CC(C)[C@H](NC(=O)[C@@H](NC(=O)[C@@H](NC(=O)[C@H](CO)NC(=O)[C@@H](NC(=O)[C@@H](Cc1ccccc1)NC(=O)[C@H](CC(N)=O)NC(=O)[C@H](CO)NC(=O)CN)[C@@H](C)O)[C@@H](C)O)[C@@H](C)O)C(=O)N[C@@H](CCCCN)C(=O)N[C@@H](C)C(=O)O`: the Activity in assay [1] turned out to be 211%; in assay [2], 229%.

Take `CC(C)[C@H](NC(=O)[C@@H](NC(=O)[C@@H](NC(=O)[C@H](CO)NC(=O)[C@@H](NC(=O)[C@H](Cc1ccccc1)NC(=O)[C@@H](CC(N)=O)NC(=O)[C@H](CO)NC(=O)CN)[C@@H](C)O)[C@@H](C)O)[C@@H](C)O)C(=O)N[C@@H](CCCCN)C(=O)N[C@@H](C)C(=O)O`: the figures for the Activity in assay [1] and in assay [2] were 144% and 133%, respectively.

For the compound `CC(C)[C@H](NC(=O)[C@@H](NC(=O)[C@@H](NC(=O)[C@H](CO)NC(=O)[C@@H](NC(=O)[C@H](Cc1ccccc1)NC(=O)[C@H](CC(N)=O)NC(=O)[C@@H](CO)NC(=O)CN)[C@@H](C)O)[C@@H](C)O)[C@@H](C)O)C(=O)N[C@@H](CCCCN)C(=O)N[C@@H](C)C(=O)O`, the Activity in assay [1] was found to be 190%; in assay [2], 346%.

With `CC(C)[C@H](NC(=O)[C@@H](NC(=O)[C@@H](NC(=O)[C@H](CO)NC(=O)[C@H](NC(=O)[C@H](Cc1ccccc1)NC(=O)[C@H](CC(N)=O)NC(=O)[C@H](CO)NC(=O)CN)[C@@H](C)O)[C@@H](C)O)[C@@H](C)O)C(=O)N[C@@H](CCCCN)C(=O)N[C@@H](C)C(=O)O`, the Activity in assay [1] amounted to 52%; in assay [2] it was 58%.

Turning to `CC(C)[C@H](NC(=O)[C@@H](NC(=O)[C@H](NC(=O)[C@H](CO)NC(=O)[C@@H](NC(=O)[C@H](Cc1ccccc1)NC(=O)[C@H](CC(N)=O)NC(=O)[C@H](CO)NC(=O)CN)[C@@H](C)O)[C@@H](C)O)[C@@H](C)O)C(=O)N[C@@H](CCCCN)C(=O)N[C@@H](C)C(=O)O`, the Activity in assay [1] came to 176%; in assay [2] it was 150%.

Regarding `CC(C)[C@H](NC(=O)[C@H](NC(=O)[C@@H](NC(=O)[C@H](CO)NC(=O)[C@@H](NC(=O)[C@H](Cc1ccccc1)NC(=O)[C@H](CC(N)=O)NC(=O)[C@H](CO)NC(=O)CN)[C@@H](C)O)[C@@H](C)O)[C@@H](C)O)C(=O)N[C@@H](CCCCN)C(=O)N[C@@H](C)C(=O)O`, the values for the Activity in assay [1] and in assay [2] were 60% and 85%, respectively.

As to `CC(C)[C@H](NC(=O)[C@@H](NC(=O)[C@@H](NC(=O)[C@H](CO)NC(=O)[C@@H](NC(=O)[C@H](Cc1ccccc1)NC(=O)[C@H](CC(N)=O)NC(=O)[C@H](CO)NC(=O)[C@H](C)N)[C@@H](C)O)[C@@H](C)O)[C@@H](C)O)C(=O)N[C@@H](CCCCN)C(=O)N[C@@H](C)C(=O)O` (H-ASNFTSTTVKA-OH), the Activity stood at 77% in assay [1] and 116% in assay [2].

Turning to `CC(C)[C@H](NC(=O)[C@@H](NC(=O)[C@@H](NC(=O)[C@H](CO)NC(=O)[C@@H](NC(=O)[C@@H](N)Cc1ccccc1)[C@@H](C)O)[C@@H](C)O)[C@@H](C)O)C(=O)N[C@@H](CCCCN)C(=O)N[C@@H](C)C(=O)O` (H-FTSTTVKA-OH), the Activity in assay [1] was determined as 280%; in assay [2] it was 236%.

On to `CC(C)[C@H](NC(=O)[C@@H](NC(=O)[C@@H](NC(=O)[C@H](CO)NC(=O)[C@@H](NC(=O)[C@H](Cc1ccccc1)NC(=O)[C@H](CC(N)=O)NC(=O)[C@H](C)NC(=O)CN)[C@@H](C)O)[C@@H](C)O)[C@@H](C)O)C(=O)N[C@@H](CCCCN)C(=O)N[C@@H](C)C(=O)O` (H-GANFTSTTVKA-OH), for which the Activity was 146% in assay [1] and 177% in assay [2].

`CC(C)[C@H](NC(=O)[C@@H](NC(=O)[C@@H](NC(=O)[C@H](CO)NC(=O)[C@@H](NC(=O)[C@H](Cc1ccccc1)NC(=O)[C@H](C)NC(=O)[C@H](CO)NC(=O)CN)[C@@H](C)O)[C@@H](C)O)[C@@H](C)O)C(=O)N[C@@H](CCCCN)C(=O)N[C@@H](C)C(=O)O` (H-GSAFTSTTVKA-OH): the Activity in assay [1] amounted to 151%; in assay [2], 198%.

As for `CC(C)[C@H](NC(=O)[C@@H](NC(=O)[C@@H](NC(=O)[C@H](CO)NC(=O)[C@@H](NC(=O)[C@H](C)NC(=O)[C@H](CC(N)=O)NC(=O)[C@H](CO)NC(=O)CN)[C@@H](C)O)[C@@H](C)O)[C@@H](C)O)C(=O)N[C@@H](CCCCN)C(=O)N[C@@H](C)C(=O)O` (H-GSNATSTTVKA-OH), the Activity in assay [1] was 31%; in assay [2] it was 133%.

With `CC(C)[C@H](NC(=O)[C@@H](NC(=O)[C@@H](NC(=O)[C@H](CO)NC(=O)[C@H](C)NC(=O)[C@H](Cc1ccccc1)NC(=O)[C@H](CC(N)=O)NC(=O)[C@H](CO)NC(=O)CN)[C@@H](C)O)[C@@H](C)O)C(=O)N[C@@H](CCCCN)C(=O)N[C@@H](C)C(=O)O` (H-GSNFASTTVKA-OH), the Activity in assay [1] turned out to be 120%; in assay [2], 228%.

With `CC(C)[C@H](NC(=O)[C@@H](NC(=O)[C@@H](NC(=O)[C@H](C)NC(=O)[C@@H](NC(=O)[C@H](Cc1ccccc1)NC(=O)[C@H](CC(N)=O)NC(=O)[C@H](CO)NC(=O)CN)[C@@H](C)O)[C@@H](C)O)[C@@H](C)O)C(=O)N[C@@H](CCCCN)C(=O)N[C@@H](C)C(=O)O` (H-GSNFTATTVKA-OH), the Activity turned out to be 182% in assay [1] and 135% in assay [2].

Consider `C[C@@H](O)[C@H](NC(=O)[C@H](Cc1ccccc1)NC(=O)[C@H](CC(N)=O)NC(=O)[C@H](CO)NC(=O)CN)C(=O)N[C@@H](CO)C(=O)O` (H-GSNFTS-OH), for which the Activity in assay [1] and in assay [2] was 0% throughout.

On to `CC(C)[C@H](NC(=O)[C@@H](NC(=O)[C@H](C)NC(=O)[C@H](CO)NC(=O)[C@@H](NC(=O)[C@H](Cc1ccccc1)NC(=O)[C@H](CC(N)=O)NC(=O)[C@H](CO)NC(=O)CN)[C@@H](C)O)[C@@H](C)O)C(=O)N[C@@H](CCCCN)C(=O)N[C@@H](C)C(=O)O` (H-GSNFTSATVKA-OH), for which the Activity is 107% in assay [1] and 231% in assay [2].

Consider `C[C@@H](O)[C@H](NC(=O)[C@H](CO)NC(=O)[C@@H](NC(=O)[C@H](Cc1ccccc1)NC(=O)[C@H](CC(N)=O)NC(=O)[C@H](CO)NC(=O)CN)[C@@H](C)O)C(=O)O` (H-GSNFTST-OH), for which the Activity in assay [1] was found to be 0%; in assay [2], 34%.

In the case of `CC(C)[C@H](NC(=O)[C@H](C)NC(=O)[C@@H](NC(=O)[C@H](CO)NC(=O)[C@@H](NC(=O)[C@H](Cc1ccccc1)NC(=O)[C@H](CC(N)=O)NC(=O)[C@H](CO)NC(=O)CN)[C@@H](C)O)[C@@H](C)O)C(=O)N[C@@H](CCCCN)C(=O)N[C@@H](C)C(=O)O` (H-GSNFTSTAVKA-OH), the Activity was determined as 124% in assay [1] and 182% in assay [2].

As for `C[C@@H](O)[C@H](NC(=O)[C@@H](NC(=O)[C@H](CO)NC(=O)[C@@H](NC(=O)[C@H](Cc1ccccc1)NC(=O)[C@H](CC(N)=O)NC(=O)[C@H](CO)NC(=O)CN)[C@@H](C)O)[C@@H](C)O)C(=O)O` (H-GSNFTSTT-OH), the Activity in assay [1] is 0%; in assay [2], 19%.
